Assay results from patent publication US20090215857A1 (Pfizer Products Inc., priority 2005, published 2009).

Key:
[1] = biological target: T1, human norepinephrine transporter (Homo sapiens, UniProt P23975); test: hNET receptor binding ([125I]-RTI-55 radioligand); details: membranes of HEK-293 cells transfected with human norepinephrine transporter cDNA; 50 pM [125I]-RTI-55; IC50 converted by Cheng-Prusoff; read-out: NET Ki
T1 construct: expressed in transfected cells; host or cells: HEK-293
Protocol: (§1) Cell pastes of HEK-293 cells transfected with a human norepinephrine transporter cDNA were prepared. The cell pastes were resuspended in 400 to 700 ml of Krebs-HEPES assay buffer (25 mM HEPES, 122 mM NaCl, 3 mM KCl, 1.2 mM MgSO4, 1.3 mM CaCl2, and 11 mM glucose, pH 7.4) with a Polytron homogenizer at setting 7 for 30 seconds. Aliquots of membranes (5 mg/ml protein) were stored in liquid nitrogen until used.
The binding assay was set up in Beckman deep-well polypropylene plates with a total volume of 250 μl containing: test compound (10^−5M to 10^−12M), cell membranes, and 50 pM [^125I]-RTI-55 (Perkin Elmer, NEX-272; specific activity 2200 Ci/mmol). The reaction was incubated by gentle agitation for 90 minutes at room temperature and was terminated by filtration through Whatman GF/C filter plates using a Brandel 96-well plate harvester. Scintillation fluid (100 μl) was added to each well, and bound [^125I]-RTI-55 was determined using a Wallac Trilux Beta Plate Counter. Test compounds were run in duplicate, and specific binding was defined as the difference between binding in the presence and absence of 10 μM desipramine.
Excel and GraphPad Prism software were used for data calculation and analysis. IC50 values were converted to K, values using the Cheng-Prusoff equation.

[2] = biological target: T2, human serotonin transporter (Homo sapiens, UniProt P31645); test: hSERT receptor binding ([125I]-RTI-55 radioligand); details: membranes of HEK-293 cells transfected with human serotonin transporter cDNA; 50 pM [125I]-RTI-55; IC50 converted by Cheng-Prusoff; read-out: SERT Ki
T2 construct: expressed in transfected cells; host or cells: HEK-293
T2 sequence (P31645 whole entry): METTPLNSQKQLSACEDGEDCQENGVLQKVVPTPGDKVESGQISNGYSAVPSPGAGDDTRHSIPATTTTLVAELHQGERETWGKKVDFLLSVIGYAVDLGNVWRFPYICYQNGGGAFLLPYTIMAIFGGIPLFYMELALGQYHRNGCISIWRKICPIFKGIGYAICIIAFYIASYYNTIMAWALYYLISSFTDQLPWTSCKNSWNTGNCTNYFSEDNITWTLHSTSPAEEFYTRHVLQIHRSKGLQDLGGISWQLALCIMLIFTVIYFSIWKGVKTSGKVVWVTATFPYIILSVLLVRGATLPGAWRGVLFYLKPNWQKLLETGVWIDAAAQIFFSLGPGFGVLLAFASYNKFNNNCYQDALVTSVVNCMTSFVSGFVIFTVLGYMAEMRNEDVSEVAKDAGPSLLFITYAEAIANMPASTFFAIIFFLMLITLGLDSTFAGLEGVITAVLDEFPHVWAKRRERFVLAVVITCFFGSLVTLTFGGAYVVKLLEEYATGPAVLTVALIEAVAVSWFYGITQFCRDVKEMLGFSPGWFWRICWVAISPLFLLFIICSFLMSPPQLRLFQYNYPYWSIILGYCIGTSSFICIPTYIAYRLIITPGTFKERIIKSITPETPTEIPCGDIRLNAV
Protocol: as §1, with “serotonin” for “norepinephrine”, “Setting” for “setting”, “(˜2.5” for “(5”
Assays were set up in FlashPlates pre-coated with 0.1% PEI in a total volume of 250 μl containing: test compound (10^−5M to 10^−12M), cell membranes, and 50 pM [^125I]-RTI-55 (Perkin Elmer, NEX-272; specific activity 2200 Ci/mmol). The reaction was incubated and gently agitated for 90 minutes at room temperature, and terminated by removal of assay volume. Plates were covered, and bound [^125I]-RTI-55 was determined using a Wallac Trilux Beta Plate Counter. Test compounds were run in duplicate, and specific binding was defined as the difference between binding in the presence and absence of 10 μM citalopram.
Excel and GraphPad Prism software were used for data calculation and analysis. IC50 values were converted to Ki values using the Cheng-Prusoff equation.

T1 sequence (P23975 whole entry): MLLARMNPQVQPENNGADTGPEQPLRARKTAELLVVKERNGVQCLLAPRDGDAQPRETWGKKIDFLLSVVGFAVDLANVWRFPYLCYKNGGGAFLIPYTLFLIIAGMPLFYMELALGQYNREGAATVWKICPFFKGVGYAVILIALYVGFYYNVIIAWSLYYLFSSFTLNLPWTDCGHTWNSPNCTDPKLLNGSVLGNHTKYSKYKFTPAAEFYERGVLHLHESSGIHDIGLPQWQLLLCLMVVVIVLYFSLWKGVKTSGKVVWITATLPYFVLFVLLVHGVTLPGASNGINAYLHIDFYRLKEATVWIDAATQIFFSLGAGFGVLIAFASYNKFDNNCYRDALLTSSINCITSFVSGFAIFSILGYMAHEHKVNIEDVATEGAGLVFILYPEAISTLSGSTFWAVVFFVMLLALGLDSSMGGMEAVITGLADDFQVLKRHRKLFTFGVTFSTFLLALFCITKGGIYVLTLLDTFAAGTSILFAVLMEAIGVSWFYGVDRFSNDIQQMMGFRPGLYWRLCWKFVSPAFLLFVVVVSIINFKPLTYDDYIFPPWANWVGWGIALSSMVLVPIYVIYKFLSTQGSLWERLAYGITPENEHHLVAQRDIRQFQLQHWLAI

COc1ccc(Cl)cc1-c1ccccc1CO[C@H]1CCNC1 [Example D-44, (S)-3-(5′-Chloro-2′-methoxy-biphenyl-2-ylmethoxy)-pyrrolidine]
Ki [1]: 3340 nM | Ki [2]: 12.4 nM

c1cc(-c2ccccc2CO[C@H]2CCNC2)cc(-n2cccn2)c1 [Example D-45, (S)-1-[2′-(Pyrroldin-3-yloxymethyl)-biphenyl-3-yl]-1H-pyrazole]
Ki [1]: 3340 nM | Ki [2]: 12.4 nM

c1ccc(-c2ccc3c(c2)OCCO3)c(CO[C@H]2CCNC2)c1 [Example D-46]
Ki [1]: 3880 nM | Ki [2]: 3760 nM

CC(=O)c1ccc(-c2ccccc2CO[C@H]2CCNC2)cc1 [Example D-47, (S)-1-[2′-(Pyrrolidin-3-yloxymethyl)-biphenyl-4-yl]-ethanone]
Ki [1]: 4120 nM | Ki [2]: 906 nM

c1ccc(COc2ccccc2-c2ccccc2CO[C@H]2CCNC2)cc1 [Example D-48, (S)-3-(2′-Benzyloxy-biphenyl-2-ylmethoxy)-pyrrolidine]
Ki [1]: 4180 nM | Ki [2]: ≥ 10000 nM

COc1ccc(C(C)C)cc1-c1ccccc1CO[C@H]1CCNC1 [Example D-49, (S)-(5′-Isopropyl-2′-methoxy-biphenyl-2-ylmethoxy)-pyrrolidine]
Ki [1]: 4230 nM | Ki [2]: 2970 nM

c1ccc(-c2ccc3c(c2)OCCCO3)c(CO[C@H]2CCNC2)c1 [Example D-50, (S)-3-[2-(3,4-Dihydro-2H-benzo[b][1,4]dioxepin-7-yl)-benzyloxy]-pyrrolidine]
Ki [1]: 4450 nM | Ki [2]: 709 nM

N#Cc1ccc(-c2ccccc2CO[C@H]2CCNC2)cc1 [Example D-51]
Ki [1]: 5410 nM | Ki [2]: 5460 nM

N#Cc1ccccc1-c1ccccc1CO[C@H]1CCNC1 [Example D-52]
Ki [1]: ≥ 10000 nM | Ki [2]: ≥ 10000 nM

N#Cc1cccc(-c2ccccc2CO[C@H]2CCNC2)c1 [Example D-53]
Ki [1]: ≥ 10000 nM | Ki [2]: ≥ 10000 nM

COc1ccc(-c2ccccc2CO[C@H]2CCNC2)c(OC)c1 [Example D-54, (S)-3-(2′,4′-Dimethoxy-biphenyl-2-ylmethoxy)-pyrrolidine]
Ki [1]: ≥ 10000 nM | Ki [2]: ≥ 10000 nM

FC(F)(F)c1ccc(-c2ccccc2CO[C@H]2CCNC2)cc1 [Example D-55, (S)-3-(4′-Trifluoromethyl-biphenyl-2-ylmethoxy)-pyrrolidine]
Ki [1]: ≥ 10000 nM | Ki [2]: 201 nM

CC(C)Oc1ccc(-c2ccccc2CO[C@H]2CCNC2)cc1 [Example D-56, (S)-(4′-Isopropoxy-biphenyl-2-ylmethoxy)-pyrroldine]
Ki [1]: ≥ 10000 nM | Ki [2]: 658 nM

COc1cc(-c2ccccc2CO[C@H]2CCNC2)cc(OC)c1OC [Example D-57, (S)-3-(3′,4′,5′-Trimethoxy-biphenyl-2-ylmethoxy)-pyrrolidine]
Ki [1]: ≥ 10000 nM | Ki [2]: 589 nM

CCS(=O)(=O)c1ccc(-c2ccccc2CO[C@H]2CCNC2)cc1 [Example D-58, (S)-3-(4′-Ethanesulfonyl-biphenyl-2-ylmethoxy)-pyrrolidine]
Ki [1]: ≥ 10000 nM | Ki [2]: 3030 nM

Cc1cc(C)n(-c2cccc(-c3ccccc3CO[C@H]3CCNC3)c2)n1 [Example D-59, (S)-3,5-Dimethyl-1-[2′-(pyrrolidin-3-yloxymethyl)-biphenyl-3-yl]-1H-pyrazole]
Ki [1]: ≥ 10000 nM | Ki [2]: 57.8 nM

COc1cccc(-c2ccccc2CO[C@H]2CCNC2)c1C(=O)N(C(C)C)C(C)C [Example D-60, (S)-3-Methoxy-2′-(pyrrolidin-3-yloxymethyl)-biphenyl-2-carboxylic acid diisopropylamide]
Ki [1]: ≥ 10000 nM | Ki [2]: 882 nM

COc1ccc(Cl)cc1-c1ccc(F)cc1CO[C@H]1CCNC1 [Example D-61, (S)-3-(5′-Chloro-4-fluoro-2′-methoxy-biphenyl-2-ylmethoxy)-pyrrolidine]
Ki [1]: 993 nM | Ki [2]: 794 nM

N#Cc1cccc(-c2ccc(F)cc2CO[C@H]2CCNC2)c1 [Example D-62, (S)-4′-Fluoro-2′-(pyrrolidin-3-yloxymethyl)-biphenyl-3-carbonitrile]
Ki [1]: 480 nM | Ki [2]: 319 nM

Cc1ccc(-c2ccc(F)cc2CO[C@H]2CCNC2)cc1 [Example D-63, (S)-3-(4-Fluoro-4′-methyl-biphenyl-2-ylmethoxy)-pyrrolidine]
Ki [1]: 36.6 nM | Ki [2]: 423 nM

COc1ccc(F)cc1-c1ccc(F)cc1CO[C@H]1CCNC1 [Example D-64, (S)-3-(4,5′-Difluoro-2′-methoxy-biphenyl-2-ylmethoxy)-pyrroldine]
Ki [1]: 1290 nM | Ki [2]: 656 nM

Fc1ccc(-c2cc(Cl)cc(Cl)c2)c(CO[C@H]2CCNC2)c1 [Example D-65, (S)-3-(3′,5′-Dichloro-4-fluoro-biphenyl-2-ylmethoxy)-pyrrolidine]
Ki [1]: 265 nM | Ki [2]: 49.7 nM

Fc1ccc(-c2ccccc2)c(CO[C@H]2CCNC2)c1 [Example D-66, (S)-3-(4-Fluoro-biphenyl-2-ylmethoxy)-pyrrolidine]
Ki [1]: 65.9 nM | Ki [2]: 126 nM

Cc1cc(C)cc(-c2ccc(F)cc2CO[C@H]2CCNC2)c1 [Example D-67, (S)-3-(4-Fluoro-3′,5′-dimethyl-biphenyl-2-ylmethoxy)-pyrrolidine]
Ki [1]: 377 nM | Ki [2]: 116 nM

COc1ccc(OC)c(-c2ccc(F)cc2CO[C@H]2CCNC2)c1 [Example D-68, (S)-3-(4-Fluoro-2′,5′-dimethoxy-biphenyl-2-ylmethoxy)-pyrrolidine]
Ki [1]: 1160 nM | Ki [2]: 1240 nM

Cc1cccc(-c2ccc(F)cc2CO[C@H]2CCNC2)c1 [Example D-69, (S)-3-(4-Fluoro-3′-methyl-biphenyl-2-ylmethoxy)-pyrrolidine]
Ki [1]: 90.4 nM | Ki [2]: 85.8 nM

CCOc1cccc(-c2ccc(F)cc2CO[C@H]2CCNC2)c1 [Example D-70, (S)-3-(3′-Ethoxy-4-fluoro-biphenyl-2-ylmethoxy)-pyrrolidine]
Ki [1]: 832 nM | Ki [2]: 195 nM

Fc1ccc(-c2ccc(F)c(F)c2)c(CO[C@H]2CCNC2)c1 [Example D-71, (S)-(4,3′,4′-Trifluoro-biphenyl-2-ylmethoxy)-pyrrolidine]
Ki [1]: 60 nM | Ki [2]: 108 nM

COc1ccccc1-c1ccc(F)cc1CO[C@H]1CCNC1 [Example D-72, (S)-3-(4-Fluoro-2′-methoxy-biphenyl-2-ylmethoxy)-pyrrolidine]
Ki [1]: 205 nM | Ki [2]: 356 nM

Fc1ccc(-c2ccc(F)c(Cl)c2)c(CO[C@H]2CCNC2)c1 [Example D-73, (S)-3-(3′-Chloro-4,4′-difluoro-biphenyl-2-ylmethoxy)-pyrrolidine]
Ki [1]: 146 nM | Ki [2]: 49.7 nM

Fc1ccc(-c2ccc(F)cc2CO[C@H]2CCNC2)cc1 [Example D-74, (S)-3-(4,4′-Difluoro-biphenyl-2-ylmethoxy)-pyrrolidine]
Ki [1]: 43.4 nM | Ki [2]: 146 nM

Fc1ccc(-c2cccc(C(F)(F)F)c2)c(CO[C@H]2CCNC2)c1 [Example D-75, (S)-3-(4-Fluoro-3′-trifluoromethyl-biphenyl-2-ylmethoxy)-pyrrolidine]
Ki [1]: 598 nM | Ki [2]: 106 nM

CCc1ccc(-c2ccc(F)cc2CO[C@H]2CCNC2)cc1 [Example D-76, (S)-3-(4′-Ethyl-4-fluoro-biphenyl-2-ylmethoxy)-pyrrolidine]
Ki [1]: 1280 nM | Ki [2]: 734 nM

COc1ccc(-c2ccc(F)cc2CO[C@H]2CCNC2)c(OC)c1 [Example D-77, (S)-3-(4-Fluoro-2′,4′-dimethoxy-biphenyl-2-ylmethoxy)-pyrrolidine]
Ki [1]: 1350 nM | Ki [2]: 1400 nM

CC(=O)c1ccc(-c2ccc(F)cc2CO[C@H]2CCNC2)cc1 [Example D-78, (S)-1-[4′-Fluoro-2′-(pyrrolidin-3-yloxymethyl)-biphenyl-4-yl]-ethanone]
Ki [1]: 6870 nM | Ki [2]: 444 nM

Fc1ccc(-c2ccc(C(F)(F)F)cc2)c(CO[C@H]2CCNC2)c1 [Example D-79, (S)-3-(4-Fluoro-4′-trifluoromethyl-biphenyl-2-ylmethoxy)-pyrrolidine]
Ki [1]: 6780 nM | Ki [2]: 206 nM

Fc1cccc(-c2ccc(F)cc2CO[C@H]2CCNC2)c1 [Example D-80, (S)-3-(4,3′-Difluoro-biphenyl-2-ylmethoxy)-pyrrolidine]
Ki [1]: 36 nM | Ki [2]: 44.7 nM
